Columns and labels:
[1] = test system: SU-DHL-1 cells; assay: PrestoBlue cell viability assay, SU-DHL-1 cells; format: cell-based, human; conditions: for growth inhibition: SU-DHL-1 cells
[2] = test system: U937 cells; assay: PrestoBlue cell viability assay, U937 cells; format: cell-based, human; conditions: for growth inhibition: U937 cells

| Compound | IC50 ([1]; Homo sapiens, SU-DHL-1, 48 hours, cell viability, n=3, read-out: average half maximal inhibitory concentration (IC50)) [nM] | growth inhibition [1] | IC50 ([2]; Homo sapiens, U-937, U937, 48 hours, cell viability, n=3, read-out: average half maximal inhibitory concentration (IC50)) [nM] | growth inhibition [2] |
| --- | --- | --- | --- | --- |
| Nc1nc(Cl)nc2c1ncn2C1CC(O)C(CO)O1 (stereo not drawn) [cladribine, 5-(6-amino-2-chloro-purin-9-yl)-2-(hydroxymethyl)oxolan-3-ol] | 204 | dose-dependent growth inhibition | 42 | dose-dependent growth inhibition |
| hemoglobin: human hemoglobin, a CD163 ligand, unconjugated control |  | not |  | not |

Reference: patent US20160158368A1, “METHODS AND COMPOSITIONS FOR THE TREATMENT OF HISTIOCYTOSIS” (Therapure Biopharma Inc., priority 2014, published 2016)
